Experimental findings from article PMC7802075 (ACS Infectious Diseases, 2020) are described below.

SMILES strings stand for the structures. Where a SMILES comes first, the peptide text is derived from it.

Usually inhibition stands for the drop in the measured response relative to a control, in per cent.

One experiment deals with T1, LmjIPCS (inositol phosphorylceramide synthase from L. major) (Leishmania major, UniProt E9AFX2).
T1 sequence (E9AFX2 1-338): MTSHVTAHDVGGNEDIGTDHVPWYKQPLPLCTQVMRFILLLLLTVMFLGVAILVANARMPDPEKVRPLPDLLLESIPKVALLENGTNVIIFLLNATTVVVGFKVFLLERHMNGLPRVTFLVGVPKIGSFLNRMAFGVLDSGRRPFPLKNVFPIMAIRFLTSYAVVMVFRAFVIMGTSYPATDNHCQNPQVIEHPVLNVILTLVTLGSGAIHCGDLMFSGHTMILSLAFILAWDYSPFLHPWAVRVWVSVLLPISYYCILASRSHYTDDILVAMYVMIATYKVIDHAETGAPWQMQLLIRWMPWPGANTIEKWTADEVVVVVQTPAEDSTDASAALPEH
As to the kind of experiment: biochemical. The arrangement: inhibition: dose or concentration left out as unconfirmed.
Conditions: not given
The experiment is classed as biochemical.
For the molecule `CCCCCCCCCCC[C@@H](C[C@@H]1OC(=O)[C@H]1CCCCCC)OC(=O)[C@H](CC(C)C)NC=O` [ORLISTAT], the “20mM inhibition LmjIPCS” value is reported as 66%.
`NCCc1cc(O)c(O)cc1O` [OXIDOPAMINE]: the “20mM inhibition LmjIPCS” value was 65%.
For the molecule `CCCCC1C(=O)N(c2ccccc2)N(c2ccc(O)cc2)C1=O` (centres unmarked) [OXYPHENBUTAZONE], the “20mM inhibition LmjIPCS” value is 45%.
As for `CN1CCCN=C1COC(=O)C(O)(c1ccccc1)C1CCCCC1` (centres unmarked) [OXYPHENCYCLIMINE], the “20mM inhibition LmjIPCS” value came out at 53%.
Take `COc1cc2c(cc1OC)-c1cc3ccc(OC)c(OC)c3c[n+]1CC2` [PALMATINE]: the “20mM inhibition LmjIPCS” value turned out to be 8%.
On the same count and under the same terms, with `CCOc1ccc(NC(C)=O)cc1` [PHENACETIN] the figure was 38%; with `O=C(/C=C/c1ccc(O)c(O)c1)OCCc1ccccc1` [PHENETHYL CAFFEATE (CAPE)], 39%.
On to `CC(C)=CC1C(C(=O)OCc2cccc(Oc3ccccc3)c2)C1(C)C` (centres unmarked) [PHENOTHRIN], for which the “20mM inhibition LmjIPCS” value was 39%.

The same experiment, now with this note: NINDS set screen, single concentration printed as 20mM.
As for `COc1ccc(C(=O)c2ccccc2)c(O)c1` [OXYBENZONE], the “20mM inhibition LmjIPCS” value was found to be 34%.
On the same count and under the same terms, with `N#Cc1ccc2c(c1)N(CCCN1CCC(O)CC1)c1ccccc1S2` [PERICIAZINE] the figure was 52%; with `Nc1ccc(/N=N/c2ccccc2)c(N)n1` [PHENAZOPYRIDINE], 52%.

The same experiment, now with this note: NINDS set screen; read-out: inhibition LmjIPCS.
For `Cn1c(=O)[nH]c2ncn(C)c2c1=O` [PARAXANTHINE], the inhibition was -5.66%.
Consider `O=C1c2ccccc2C(=O)C1c1ccccc1` [PHENINDIONE], for which the inhibition came out at 21%.
Turning to `CN(C)CCC(c1ccccc1)c1ccccn1` (centres unmarked) [PHENIRAMINE], the inhibition was -1%.
Still for that read-out and setting: with `CNC[C@H](O)c1cccc(O)c1` [PHENYLEPHRINE] the figure was 25%.
`O=C(CCc1ccc(O)cc1)c1c(O)cc(O)cc1O[C@@H]1O[C@H](CO)[C@@H](O)[C@H](O)[C@H]1O` [PHLORIDZIN]: the inhibition is 15%.

The experiment is the same for the next values; noted with them: read-out: 20mM inhibition LmjIPCS.
As to `CO[C@H]1C[C@H](O[C@H]2[C@H](C)[C@@H](O[C@@H]3O[C@H](C)C[C@H](N(C)C)[C@H]3O)[C@@H](C)C[C@@]3(CO3)C(=O)[C@H](C)[C@@H](O)[C@@H](C)[C@@H](C)OC(=O)[C@@H]2C)O[C@@H](C)[C@@H]1O` [OLEANDOMYCIN], the inhibition at 20000 µM amounted to 1.17%.
Turning to `CCCc1nc(C(C)(C)O)c(C(=O)OCc2oc(=O)oc2C)n1Cc1ccc(-c2ccccc2-c2nnn[nH]2)cc1` [OLMESARTAN MEDOXOMIL], the inhibition at 20000 µM is 21%.
Take `C[C@@H]1O[C@@H](O[C@H]2C[C@@H](O)[C@]3(CO)[C@H]4[C@H](O)C[C@]5(C)[C@@H](C6=CC(=O)OC6)CC[C@]5(O)[C@@H]4CC[C@]3(O)C2)[C@H](O)[C@H](O)[C@H]1O` [OUABAIN]: the inhibition at 20000 µM stood at 1.15%.
Turning to `Cc1onc(-c2ccccc2)c1C(=O)N[C@@H]1C(=O)N2[C@@H]1SC(C)(C)[C@@H]2C(=O)O` [OXACILLIN], the inhibition at 20000 µM was determined as 16%.
Take `O=C1CCCN1CC#CCN1CCCC1` [OXOTREMORINE]: the inhibition at 20000 µM stood at 4%.
For `Oc1cccc2cccnc12` [OXYQUINOLINE], the inhibition at 20000 µM came to 14%.
As for `CN(C)[C@@H]1C(O)=C(C(N)=O)C(=O)[C@@]2(O)C(O)=C3C(=O)c4c(O)cccc4[C@@](C)(O)[C@H]3[C@H](O)[C@@H]12` [OXYTETRACYCLINE], the inhibition at 20000 µM is 18%.
The same measure, in the same setting: as for `COc1ccc(C(C)=O)c(O)c1` [PAEONOL], the figure is 9%.
Turning to `COc1ccc(Cc2nccc3cc(OC)c(OC)cc23)cc1OC` [PAPAVERINE], the inhibition at 20000 µM was found to be 21%.
`Oc1ccc(Cl)cc1` [PARACHLOROPHENOL]: the inhibition at 20000 µM is 12%.
For `O=C1C=C2C(=CCOC2O)O1` (centres unmarked) [PATULIN], the inhibition at 20000 µM came to 0.294%.
Same read-out and setting: with `CC(C)(S)[C@@H](N)C(=O)O` [PENICILLAMINE] the figure was 20%.
With `CC1(C)S[C@@H]2[C@H](NC(=O)COc3ccccc3)C(=O)N2[C@H]1C(=O)O` [PENICILLIN V], the inhibition at 20000 µM was 3.31%.
In the case of `C1CCc2nnnn2CC1` [PENTETRAZOL], the inhibition at 20000 µM stood at 16%.
For `C=C(C)[C@@H]1CC=C(C(=O)O)CC1` [PERILLIC ACID (-)], the inhibition at 20000 µM was 12%.
Consider `C=C(C)[C@@H]1CC=C(CO)CC1` [PERILLYL ALCOHOL], for which the inhibition at 20000 µM was found to be 11%.
Consider `CCC[C@H](N[C@@H](C)C(=O)N1[C@H](C(=O)O)C[C@@H]2CCCC[C@@H]21)C(=O)OCC` [PERINDOPRIL], for which the inhibition at 20000 µM came out at 2%.
For `CO[C@H]1[C@H](O)[C@H](O[C@H]2CC[C@@]3(C=O)[C@H](CC[C@@H]4[C@@H]3CC[C@]3(C)[C@@H](C5=CC(=O)OC5)CC[C@]43O)C2)O[C@@H](C)[C@@H]1O` [PERUVOSIDE], the inhibition at 20000 µM came out at 12%.
On to `NNCCc1ccccc1` [PHENELZINE], for which the inhibition at 20000 µM came out at 27%.
On the same count and under the same terms, with `CC(COc1ccccc1)N(CCCl)Cc1ccccc1` (centres unmarked) [PHENOXYBENZAMINE] the figure was 31%.
With `N[C@@H](Cc1ccccc1)C(=O)N[C@@H](Cc1ccc(O)cc1)C(=O)O` [PHENYLALANYLTYROSINE] (H-Phe-Tyr-OH), the inhibition at 20000 µM worked out at 7.42%.
For the molecule `O=C(O)CCCc1ccccc1` [PHENYLBUTYRATE], the inhibition at 20000 µM worked out at 1.15%.
Consider `CNC(=O)Oc1ccc2c(c1)[C@]1(C)CCN(C)[C@@H]1N2C` [PHYSOSTIGMINE], for which the inhibition at 20000 µM came to 15%.
For the molecule `COc1cc([C@@H]2c3cc4c(cc3[C@H](O)[C@H]3COC(=O)[C@@H]23)OCO4)cc(OC)c1OC` [PICROPODOPHYLLOTOXIN], the inhibition at 20000 µM was 7.47%.
Same read-out and setting: as for `C=C(C)[C@@H]1[C@H]2OC(=O)[C@@H]1[C@]1(O)C[C@H]3O[C@]34C(=O)O[C@H]2[C@]14C` [PICROTOXININ], the figure is 13%.

Still in this experiment, the particulars now being: read-out: inhibition LmjIPCS.
For `O=C(O)CCc1nc(-c2ccccc2)c(-c2ccccc2)o1` [OXAPROZIN], the inhibition is 5.6%.
Take `NC(=O)N1c2ccccc2CC(=O)c2ccccc21` [OXCARBAZEPINE]: the inhibition was -4%.
For the molecule `CC(=O)O[C@H]1C(=O)[C@@]2(C)[C@H]([C@H](OC(=O)c3ccccc3)[C@]3(O)C[C@H](OC(=O)[C@H](O)[C@@H](NC(=O)c4ccccc4)c4ccccc4)C(C)=C1C3(C)C)[C@]1(OC(C)=O)CO[C@@H]1C[C@@H]2O` [PACLITAXEL], the inhibition is 0.0705%.
With `COc1cc2c(cc1OC)-c1cc3ccc(OC)c(OC)c3c[n+]1CC2` [PALMATINE CHLORIDE], the inhibition stood at 16%.
`CC(=O)CCCCn1c(=O)c2c(ncn2C)n(C)c1=O` [PENTOXIFYLLINE]: the inhibition worked out at 5.62%.
Still for that read-out and setting: with `C[C@@]12C[C@@]3(O)O[C@@H](O1)[C@]1(COC(=O)c4ccccc4)[C@H]3C[C@@]12O[C@@H]1O[C@H](CO)[C@@H](O)[C@H](O)[C@H]1O` [PEONIFLORIN] the figure was 12%; with `C1CCC(C(CC2CCCCN2)C2CCCCC2)CC1` (centres unmarked) [PERHEXILINE], 12%.
On the same count and under the same terms, with `OCCN1CCN(CCCN2c3ccccc3Sc3ccc(Cl)cc32)CC1` [PERPHENAZINE] the figure was 0.226%; with `O=C1NC(=O)C(c2ccccc2)(c2ccccc2)N1` [PHENYTOIN], 14%.
`COc1cc(O)c2c(c1)C(=O)c1cc(C)cc(O)c1C2=O` [PHYSCION]: the inhibition came out at 18%.

The experiment is the same for the next values; noted with them: screening of NINDS set, sheet Screen 1; read-out: inhibition LmjIPCS.
For `COC(=O)Nc1nc2ccc([S+]([O-])c3ccccc3)cc2[nH]1` (centres unmarked) [OXFENDAZOLE], the inhibition was found to be 10%.
Consider `C[N+]1(CCCCC[N+]2(C)CCCC2)CCCC1` [PENTOLINIUM], for which the inhibition was found to be 11%.
